Assay [1] deals with Hepatitis C virus. Nature of the assay: Antiviral activity against Hepatitis C virus subtype 1a by replication assay. The class given is functional, organism-based, Hepacivirus hominis.
In assay [2] the test system is Hepatitis C virus. Kind of assay: Antiviral activity against Hepatitis C virus subtype 1b by replication assay. It counts as functional, organism-based, Hepacivirus hominis. As to conditions: genotype 1b.
In assay [3] the test system is Hepatitis C virus. Nature of the assay: Binding affinity to HCV 1b NS5B polymerase. As to conditions: Hepatitis C virus subtype 1b.
The subject of assay [4] is Hepatitis C virus subtype 1a. Kind of assay: Binding affinity to HCV 1a wild type NS5B polymerase.

Each structure is given as a SMILES string. Activity calls are given as the source filed them. No cut-off for these calls is given here.

As a reminder, the EC50 is the concentration at which the effect is half-maximal. A higher EC50 goes with weaker potency.

As to `O=C(NC1CC1)c1ccc(N2CCN(S(=O)(=O)c3ccc(OC(F)(F)F)cc3)[C@@H](C(=O)NCc3ccc(OC(F)(F)F)cc3)C2)nn1`, the EC50 in assay [1] was found to be 169 nM; in assay [2], 9 nM. In addition, the result in assay [3] and in assay [4] was Active.
Regarding `CC[C@H](C)NC(=O)c1ccc(N2CCN(S(=O)(=O)c3ccc(OC(F)(F)F)cc3)[C@@H](C(=O)NCc3ccc(OC(F)(F)F)cc3)C2)nn1`, the results for the EC50 in assay [1] and in assay [2] were 87 nM and 7 nM, respectively.
On to `COc1ccc(CNC(=O)C2CN(c3ccc(Cl)nn3)CCN2S(=O)(=O)c2ccc(OC(F)(F)F)cc2)cc1` (racemic), for which the EC50 in assay [1] worked out at 2200 nM; in assay [2] it was 700 nM. Further, the result in assay [3] was Active.
For the compound `COc1ccc(CNC(=O)C2CN(c3cc(OC)nc(OC)n3)CCN2S(=O)(=O)c2ccc(OC(F)(F)F)cc2)cc1` (racemic), the figures for the EC50 in assay [1] and in assay [2] were 8100 nM and 700 nM, respectively. Also, the outcome in assay [3] was Active.
Consider `CCc1ccc(S(=O)(=O)N2CCN(c3cc(OC)nc(OC)n3)CC2C(=O)NCc2ccc(OC)cc2)cc1` (racemic), for which the concentration for a half-maximal effect (EC50) worked out at 25000 nM in assay [1] and 2000 nM in assay [2].
